Test: in vivo
Procedure: […] Blood was collected by serial bleeding at 0.16 h, 0.5 h, 1 h, 2 h, 4 h, 6 h, 8 h and 24 h in heparinized tubes. Blood samples were centrifuged at 10,000 rpm for 10 min. at 4° C. to obtain the plasma, which were aspirated into separate labeled tubes and stored at −80° C. 400 ng/ml of Verapmil in acetonitrile was used as the drug extraction solvent for extracting drug from plasma. Extraction solvent was added to plasma was vortexed and shaken on shaker for 10 minutes, centrifuged at 10000 rpm for 10 minutes at 4° C. Supernatant was kept for analysis.
Acetonitrile and plasma calibration curves were generated and percentage of drug recovery from plasma determined. Quantitative analysis was done by liquid chromatography tandem mass spectrometry using multiple reaction monitoring (API3000 LC-MS/MS). Cmax, Tmax, AUC and t1/2 were calculated using Graph Pad PRISM version 5.04.

CC(=O)O[C@H]1C(=O)[C@@]2(C)[C@H]([C@H](OC(=O)c3ccccc3)[C@@]3(O)CC1=C(C)[C@@H](OC(=O)[C@H](O)[C@@H](NC(=O)c1ccccc1)c1ccccc1)C3)[C@]1(OC(C)=O)CO[C@@H]1C[C@@H]2O [Compound 4114, (2α,4α,5β,7β,10β,13α)-4,10-bis(acetyloxy)-13-{[(2R,3S)-3-(benzoylamino)-2-hydroxy-3-phenylpropanoyl]oxy}-1,7-dihydroxy-9-oxo-5,20-epoxytax-11-en-2-yl benzoate]
AUC (female, Sprague Dawley, rat, plasma, po, 10 mg/kg): 0.186 µM·h

CCc1c2c(nc3ccc(OCOC(=O)c4cccnc4)cc13)-c1cc3c(c(=O)n1C2)COC(=O)[C@]3(O)CC [Compound 305, (S)-((4,11-diethyl-4-hydroxy-3,14-dioxo-3,4,12,14-tetrahydro-1H-pyrano[3′,4′:6,7]indolizino[1,2-b]quinolin-9-yl)oxy)methyl nicotinate]
PK Value (AUC) (dosage 10.00 mpk, vehicle PEG400): BDL

CCc1c2c(nc3ccc(OCOC(=O)c4ccc[n+](COC(=O)NC(C)C)c4)cc13)-c1cc3c(c(=O)n1C2)COC(=O)[C@]3(O)CC.[I-] [Compound 306, (S)-3-((((4,11-diethyl-4-hydroxy-3,14-dioxo-3,4,12,14-tetrahydro-1H-pyrano[3′,4′:6,7]indolizino[1,2-b]quinolin-9-yl)oxy)methoxy)carbonyl)-1-(((isopropylcarbamoyl)oxy)methyl)pyridin-1-ium iodide]
PK Value (AUC) (dosage 3.00 mpk, vehicle PEG400): BDL

CCc1c2c(nc3ccc(O)cc13)-c1cc3c(c(=O)n1C2)COC(=O)[C@]3(O)CC [Compound 4150, (S)-4,11-diethyl-4,9-dihydroxy-1H-pyrano[3′,4′:6,7]indolizino[1,2-b]quinoline-3,14(4H,12H)-dione]
PK Value (AUC) (rat, in vivo): BDL
